The values below come from US20140234317A1, “METHODS FOR PREVENTING TOXIC DRUG-DRUG INTERACTIONS IN COMBINATION THERAPIES COMPRISING ANTI-ERBB3 AGENTS” (Merrimack Pharmaceuticals, Inc., priority 2011, published 2014).

For one data set, the system named is plasma protein. Particulars: TKIs in clinical use; cited from earlier work.
Data set [1] is described as follows: Average plasma concentration of erlotinib co-administered with MM-121. The class given is in vivo, human. Particulars: for Erlotinib Avg Conc.: plasma. The text has this:
The ability of the anti-ErbB3 agent to alter the pharmacokinetics of a co-administered AAGB or TKI can be evaluated by measuring serum drug levels and calculating pharmacokinetic parameters. Pharmacokinetic parameters referred to herein (e.g., Example 1) describe the in vivo characteristics of a drug over time. These include plasma concentration (C), as well as Cmax, Tmax, and AUC. The term “Cmax” refers to the measured plasma concentration of the active agent at the point of maximum, or peak, concentration following an administration. The term “Tmax” refers to the time from drug administration until Cmax is reached. The term “AUC” refers to the area under the curve of a graph of the measured plasma concentration of an active agent vs. time, measured from one time point to another time point. For example AUC0-t is the area under the curve of plasma concentration versus time from time 0 to time t, where time 0 is the time of initial administration of the drug. Time t can be the last time point with measurable plasma concentration for an individual drug.
Patients also received one of two different doses of erlotinib (either 100 mg or 150 mg) administered daily orally. The antibody administration began on Day 1 and continued with weekly doses and the erlotinib administration began on Day 2 and continued with daily doses. Pharmacokinetic parameters were monitored for the duration of treatment, until the patient's cancer progressed or the patient came off the study.
For the erlotinib, the average plasma concentration was measured.

The subject of data set [2] is alpha 1-acid glycoprotein (AAG). Particulars: reported; cited from earlier work.

In the case of `C#Cc1cccc(Nc2ncnc3cc(OCCOC)c(OCCOC)cc23)c1` [Erlotinib, erlotinib], in the data set on plasma protein, the plasma protein binding entry is “high”. Also, the “higher average plasma concentration of erlotinib” value was “approximately 2.19 fold” in data set [1] (Patient 5 (12 mg/kg MM-121) vs Patient 2 (6 mg/kg MM-121), each 150 mg erlotinib); “approximately 2.02 fold” in data set [1] (Patient 8 (12 mg/kg MM-121) vs Patient 1 (6 mg/kg MM-121), each 100 mg erlotinib); 2-3 fold in data set [1] (patients treated with 12 mg/kg anti-ErbB3 antibody compared to patients treated with 6 mg/kg). Besides, the “Erlotinib Avg Conc.” value in data set [1] (Subject 1, erlotinib 100 mg daily oral + MM-121 6 mg/kg weekly i.v.) stood at 384 ng/mL; in data set [1] (Subject 2, erlotinib 150 mg daily oral + MM-121 6 mg/kg weekly i.v.), 624 ng/mL; in data set [1] (Subject 3, erlotinib 150 mg daily oral + MM-121 6 mg/kg weekly i.v.), 569 ng/mL; in data set [1] (Subject 4, erlotinib 150 mg daily oral + MM-121 6 mg/kg weekly i.v.), 656 ng/mL; in data set [1] (Subject 5, erlotinib 150 mg daily oral + MM-121 12 mg/kg weekly i.v.) it was 1370 ng/mL; in data set [1] (Subject 6, erlotinib 150 mg daily oral + MM-121 12 mg/kg weekly i.v.) it was 1165.3 ng/mL. The “Erlotinib Avg Conc.” value was 2395.6 ng/mL in data set [1] (Subject 7, erlotinib 100 mg daily oral + MM-121 12 mg/kg weekly i.v.) and 777.5894 ng/mL in data set [1] (Subject 8, erlotinib 100 mg daily oral + MM-121 12 mg/kg weekly i.v.). For the same molecule, the “binding to AAG that can alter bioavailability” value in data set [2] is recorded as “significant binding”.

For the molecule `CN(C)C/C=C/C(=O)Nc1cc2c(Nc3ccc(F)c(Cl)c3)ncnc2cc1O[C@H]1CCOC1` [afatinib], in the data set on plasma protein, the plasma protein binding entry is “high”.

In the case of `Cc1nc(Nc2ncc(C(=O)Nc3c(C)cccc3Cl)s2)cc(N2CCN(CCO)CC2)n1` [dasatinib], the plasma protein binding result in the data set on plasma protein was “high”.

Consider `COc1cc2ncnc(Nc3ccc(F)c(Cl)c3)c2cc1OCCCN1CCOCC1` [gefitinib], for which the plasma protein binding entry in the data set with plasma protein is listed as “high”. Moreover, the “binding to AAG that can alter bioavailability” value in data set [2] is recorded as “significant binding”.

Regarding `Cc1ccc(NC(=O)c2ccc(CN3CCN(C)CC3)cc2)cc1Nc1nccc(-c2cccnc2)n1` [imatinib], the “binding to AAG that can alter bioavailability” value in data set [2] was “significant binding”.

With `CS(=O)(=O)CCNCc1ccc(-c2ccc3ncnc(Nc4ccc(OCc5cccc(F)c5)c(Cl)c4)c3c2)o1` [lapatinib], in the data set with plasma protein, the plasma protein binding entry is recorded as “high”. Also, the “binding to AAG that can alter bioavailability” value in data set [2] is “significant binding”.

With `Cc1cn(-c2cc(NC(=O)c3ccc(C)c(Nc4nccc(-c5cccnc5)n4)c3)cc(C(F)(F)F)c2)cn1` [nilotinib], the plasma protein binding result with plasma protein is recorded as “high”.

For the molecule `Cc1ccc(Nc2nccc(N(C)c3ccc4c(C)n(C)nc4c3)n2)cc1S(N)(=O)=O` [pazopinib], the plasma protein binding result with plasma protein is given as “high”.

As for `CNC(=O)c1cc(Oc2ccc(NC(=O)Nc3ccc(Cl)c(C(F)(F)F)c3)cc2)ccn1` [sorafenib], the plasma protein binding result in the data set with plasma protein is given as “high”.

For `CCN(CC)CCNC(=O)c1c(C)[nH]c(/C=C2\C(=O)Nc3ccc(F)cc32)c1C` [sunitinib], the plasma protein binding entry with plasma protein is on record as “high”.
